One data set deals with A-549 (lung carcinoma). As to the kind of experiment: Sulforhodamine B cytotoxicity assay, A-549. Format: cell-based, human. Conditions: Table 1; 72 h; average ± SD. The source says: (§1) The human tumor cell lines used in this manuscript were A-549 (lung carcinoma), MDA-MB-231 (triple-negative breast cancer), DU-145 (hormone-insensitive prostate cancer), KB (originally isolated from epidermoid carcinoma of the nasopharynx), KBvin (vincristine-resistant KB subline), and HCT116 (colorectal adenocarcinoma). These cell lines were obtained from the Lineberger Comprehensive Cancer Center (UNC-CH) or from ATCC (Manassas, Va.), except KBvin, which was a generous gift of Professor Y.-C. Cheng (Yale University). All cell lines were maintained and assayed in RPMI-1640 medium containing 2 mM L-glutamine and 25 mM HEPES (HyClone), supplemented with 10% heat-inactivated fetal bovine serum (HyClone), 100 μg/mL streptomycin, 100 IU/mL penicillin, and 0.25 μg/mL amphotericin B (Cellgro) in a humidified atmosphere containing 5% CO2 in air. […] The 4-6×10^3 cells/well were cultured for 72 h with various concentrations of test compounds in 96-well plate at 37° C. […] Each assay was performed in triplicate with duplicated samples.
Background: Sulforhodamine B stains cellular protein and so reports cell mass.

Another data set relates to A549 (Lung cancer). As to the kind of experiment: cells. It counts as cell-based, human. Conditions: Table 6; read-out: In vitro cytotoxicity A549 (Lung cancer).
The next data set has as its system Topo II. As to the kind of experiment: Topo II activity assay, nuclear extracts of treated A-549 cells, catenated kDNA. Format: cell-based, human. The source says:
(§2) First, we determined the effect of 9a on cell cycle distribution using flow cytometry analysis. […] Because it has been shown that 1-Topo I-DNA covalent complexes enhance the transcription-dependent degradation of Topo I via a 26S proteasome pathway,^32 the effects of 9a on the expression levels of Topo I and Topo II were investigated. […] Compound 9a acts directly on Topo I and results in the accumulation of covalent Topo I-DNA complexes followed by proteasomal Topo I degradation, which is the same effect as 1 and contributes to 9a's cytotoxicity.
(§3) Topo I activity test was performed using an assay kit (TopoGEN) according to the manufacturer's instructions. Nuclear extracts from 9a-treated A-549 cells were incubated with supercoiled DNA (for Topo I) or catenated kDNA (for Topo II) for 30 min at 37° C. Reaction mixture was separated by is 1% agarose gel in 1×TAE buffer. The gel was stained with ethidium bromide and photographed using Gel Doc XR (Bio-Rad).

The subject of the next data set is SKOV3 (Ovary cancer). As to the kind of experiment: cells. It counts as cell-based, human. To be noted: Table 6; read-out: In vitro cytotoxicity SKOV3 (Ovary cancer).
Data set [1] deals with MDA-MB-468 (Breast cancer). As to the kind of experiment: cells. Conditions: Table 6; read-out: In vitro cytotoxicity MDA-MB-468 (Breast cancer). Format: cell-based, human.
Data set [2] deals with T1, Topo I (Homo sapiens, UniProt P11387).
T1 sequence (P11387 1-765): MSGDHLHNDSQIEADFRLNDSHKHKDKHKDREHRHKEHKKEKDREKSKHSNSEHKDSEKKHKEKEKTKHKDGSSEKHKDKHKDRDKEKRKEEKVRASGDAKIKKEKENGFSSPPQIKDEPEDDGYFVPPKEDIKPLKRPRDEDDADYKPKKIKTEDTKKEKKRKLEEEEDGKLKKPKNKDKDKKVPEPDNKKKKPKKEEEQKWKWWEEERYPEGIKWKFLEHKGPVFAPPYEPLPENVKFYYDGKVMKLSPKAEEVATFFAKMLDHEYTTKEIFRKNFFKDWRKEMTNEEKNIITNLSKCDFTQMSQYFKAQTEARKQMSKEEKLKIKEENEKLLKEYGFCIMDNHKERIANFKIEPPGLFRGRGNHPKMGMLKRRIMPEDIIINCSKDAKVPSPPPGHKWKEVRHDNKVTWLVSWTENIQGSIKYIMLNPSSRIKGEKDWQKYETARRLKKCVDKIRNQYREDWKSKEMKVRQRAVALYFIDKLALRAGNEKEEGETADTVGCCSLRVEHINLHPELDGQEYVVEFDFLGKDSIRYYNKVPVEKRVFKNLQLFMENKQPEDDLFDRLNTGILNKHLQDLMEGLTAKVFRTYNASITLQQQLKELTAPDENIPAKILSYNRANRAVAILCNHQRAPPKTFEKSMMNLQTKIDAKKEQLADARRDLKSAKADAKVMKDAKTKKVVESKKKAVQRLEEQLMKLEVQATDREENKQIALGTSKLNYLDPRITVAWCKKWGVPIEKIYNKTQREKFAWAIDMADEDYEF
As to the kind of experiment: Western blot analysis of Topo I expression. It counts as cell-based. More on the design: endogenous in cells; host or cells: A-549. To be noted: after 8 h treatment.
From the text: as §2
Cells were harvested in PBS containing proteinase inhibitors and phosphatase inhibitors, and sonicated. Whole cell lysates were separated by SDS-PAGE and transferred to Immobilon P membrane (EMD Millipore). The membrane was incubated with primary antibody followed by labeling with horseradish peroxidase (HRP)-conjugated secondary antibody (EMD Millipore). Chemilluminence substrate kit (EMD Millipore) was used for detection of membrane-bound HRP, and visualized by the Luminsence image analyzer, LAS4000 (Fuji Photo Film Co., Japan).
Antibodies to caspase-3, caspase-8, caspase-9, PARP, phospho-ATM (Ser1981), ATM, phospho-ATR (Ser428), phospho-Chk1 (Ser345), phospho-Chk2 (Thr68), Chk2, phospho-H2AX (Ser139), and phospho-p53 (Ser15) were purchased from Cell Signaling Technology. […]

The test system of data set [3] is KBvin (vincristine-resistant KB subline). As to the kind of experiment: Sulforhodamine B cytotoxicity assay, KBvin. Format: cell-based, human. Conditions: Table 1; 72 h; average ± SD; read-out: IC50 KBvin.
From the text: as §1

In data set [4] the target is T1, Topo I. As to the kind of experiment: Topo I activity assay, nuclear extracts of treated A-549 cells, supercoiled DNA. Format: cell-based. More on the design: Nuclear extracts from 9a-treated A-549 cells were incubated with supercoiled DNA (for Topo I); endogenous in cells; host or cells: A-549. The procedure: First, we determined the effect of 9a on cell cycle distribution using flow cytometry analysis. […] Because it has been shown that 1-Topo I-DNA covalent complexes enhance the transcription-dependent degradation of Topo I via a 26S proteasome pathway,^32 the effects of 9a on the expression levels of Topo I and Topo II were investigated.
as §3

A further data set relates to HCT 116 (Colon cancer). As to the kind of experiment: cells. To be noted: Table 6; read-out: In vitro cytotoxicity HCT 116 (Colon cancer). It counts as cell-based, human.

With `CC[C@@]1(OC(=O)CNC(Cc2ccc(OC)cc2)=NS(=O)(=O)c2ccc(C)cc2)C(=O)OCc2c1cc1n(c2=O)Cc2cc3ccccc3nc2-1` [Compound 9a], the IC50 in the data set on A-549 (lung carcinoma) was determined as 31 ± 3.5 nM; with A549 (Lung cancer), 80.3 ± 6.13 nM; with SKOV3 (Ovary cancer), 17.1 ± 2.27 nM; in [1] it was 22.8 ± 2.97 nM; in [3], 26 nM; in the data set with HCT 116 (Colon cancer) it was 46.1 ± 1.74 nM. For the same compound, the “Topo II decatenation of kDNA” value in the data set with Topo II is on record as “failed to decatenate kineoplast DNA”. The “protein levels of Topo I” value at Topo I [2] is listed as “significantly inhibited protein levels of Topo I”. Also, the “Topo I-mediated relaxation of supercoiled DNA” value on Topo I [4] is reported as “inhibited the relaxation of supercoiled DNA”.

The values are drawn from patent publication US9718835B2 (China Medical University Hospital, priority 2013, dated 2017).
